Assay results taken from the NIST ThermoML archive (doi:10.1016/j.fluid.2011.10.009).
Numbers after ± are expanded uncertainties.

Details: Liquid

SMILES: Cc1cccc(C)c1 [1,3-dimethylbenzene]
- vapor or sublimation pressure (412 K, Ebulliometric method (Recirculating still)): 101.3 ± 1 kPa

SMILES: Cc1ccc(C)cc1 [1,4-dimethylbenzene]
- vapor or sublimation pressure (411.4 K, Ebulliometric method (Recirculating still)): 101.3 ± 1 kPa

SMILES: c1ccccc1 [benzene]
- vapor or sublimation pressure (353.3 K, Closed cell (Static) method): 101.3 ± 1 kPa

SMILES: C1CCCCC1 [cyclohexane]
- vapor or sublimation pressure (353.7 K, Ebulliometric method (Recirculating still)): 101.3 ± 1 kPa

SMILES: CCCCCCCCC [nonane]
- vapor or sublimation pressure (423.8 K, Ebulliometric method (Recirculating still)): 101.3 ± 1 kPa

SMILES: Cc1ccccc1 [toluene]
- vapor or sublimation pressure (383.4 K, Closed cell (Static) method): 101.3 ± 1 kPa
- vapor or sublimation pressure (383.8 K, Closed cell (Static) method): 101.3 ± 1 kPa
